Test results as given in a melting point compilation (Tetko et al.; mined from patent text by program, amines drawn as free bases though some values may be those of a salt).

Structure (SMILES) | melting point
O=[N+]([O-])c1ccc2ccn(CCCCl)c2c1 | 85 to 87 °C
Clc1nc(Cl)c2c(n1)CCC2 | 77 to 79 °C
NCCn1c(-c2ccc(Br)cc2)csc1=Nc1ccccc1 | 58 to 61 °C
CCCc1c(OCC(O)COc2ccc3c(=O)cc(CCC(=O)OCC)oc3c2CCC)ccc(C(C)=O)c1O (centres undefined) | 137 to 138 °C
COc1ccc(-c2cc(C(F)F)nn2-c2ccc(S(N)(=O)=O)cc2)cc1F | 159 to 161 °C
CCCCCCCCCC(=O)Oc1ccc(N(CC(=O)O)CC(=O)O)cc1OC(=O)CCCCCCCCC | 131 to 133 °C
CCCCc1nc2c(N)nc3ccccc3c2o1 | 96 to 98 °C
CSC1=C(c2cc3ccccc3s2)N2CCN=C2S1 | 95 to 97 °C
CCc1ccc(-c2ccc(C(=O)Nc3cc4ncc(CN5CCCC5)cc4cc3C)cc2)cc1 | 188 °C
CC(=O)N1CCN=C1Nc1cc(C)nn1-c1cccc(C(F)(F)F)c1 | 173 to 175 °C
Cc1cc(SCc2cccc3nc(-c4ccc(C(F)(F)F)cc4)sc23)ccc1OCC(=O)O | 193 to 196 °C
C(=Cc1ccccc1)C=Nc1ccc(Cc2ccc(N=CC=Cc3ccccc3)cc2)cc1 | 162 to 164 °C
CC(C)n1nc(-c2c(NC(C)(C)C)nc(N)nc2-c2ccccc2)ccc1=O | 202 to 204 °C
CCCc1nc(C(C)(C)O)c(C(=O)O)n1Cc1ccc(-c2ccccc2-c2nnn[nH]2)cc1 | 166 to 169 °C
Fc1ccc(C(F)(F)F)cc1-c1cccn2nc(Cl)nc12 | 88 to 89 °C
CCc1cc2c(c(Sc3ccccc3)cc(=O)n2Cc2ccc(C(=O)O)cc2)c(CC)n1 | 260 to 262 °C
CC(=O)Nc1ncc(CCc2ccc(NC(NC(=O)OC(C)(C)C)NC(=O)OC(C)(C)C)cc2)s1 | 203 to 205 °C
CC1=C(CCCl)C(=O)C2Sc3ccccc3N2C1 (centres undefined) | 114 °C
O=C(c1ccccc1)c1ccc(N2CCC(N3C(=O)OCc4ccccc43)CC2)c([N+](=O)[O-])c1 | 272 to 273 °C
CC(O)(c1cccc(C(F)(F)F)c1)c1cc(Cl)ccc1O (centres undefined) | 115 °C
C#CCn1c(C(F)(F)F)c(C(O)C#C)c2ccccc21 (racemic) | 98 °C

Structure (SMILES) | melting point
Nc1ccc(-c2noc(-c3cnn4c(C(F)(F)F)cc(-c5ccc(C(F)(F)F)c(OCC(F)(F)F)c5)nc34)n2)cn1 | 284 °C
CC1(C)C=C(c2ccc3ccccc3n2)c2cc(C#N)ccc2O1 | 102 to 104 °C
COc1ccc(-c2ccc(C=O)c3occc23)cc1 | 104 to 105 °C
Cc1nc2cccnc2c(O)c1C(=O)c1ccccc1 | > 260 °C
CCc1ccc(N2CCN(Cc3c[nH]c4ncccc34)CC2)cc1 | 216 to 217 °C
N#CCCNC(=O)c1cccc(-c2ccc3c(c2)N(CCc2ccc(Cl)cc2Cl)CC3)c1 | 147 to 149 °C
NCCCNc1nc2c(NCc3ccccc3)ncnc2n1C1OC(CO)C(O)C1O (centres undefined) | 72 to 76 °C
Nc1nc2[nH]c(CCCCCCc3ccc(C(=O)N[C@@H](CCC(=O)O)C(=O)O)s3)cc2c(=O)[nH]1 | 183 to 184 °C
O=Cc1cc(-n2cnnn2)cc2ccoc12 | 174 to 175 °C
CCOC(=O)c1[nH]c2cc(C(F)(F)F)ccc2c1N | 204 to 210 °C
COc1ccc(NC(=O)c2ccc(OC)c(N)c2)cc1 | 164 to 167 °C
COC(=O)c1cc(-c2ccc(S(C)(=O)=O)cc2)n(-c2ccc(F)cc2)c1 | 144 to 146 °C
Nc1nc(-c2cn([C@H](CO)CCc3ccccc3)cn2)n[nH]1 | 80 °C
COC(=O)c1ccc(/C=C/c2ccc(SC)cc2)nc1 | 157 to 159 °C
O=S(=O)(N=Cc1ccc(Cl)cc1)c1ccc(Cl)cc1 | 128 °C
CCCCCCCCCCCCSC(=S)SC(C)(C#N)CCC(=O)O (centres undefined) | 58 to 59 °C
CCCOc1ccccc1NC=C1C(=O)N(c2ccc(C(=O)O)cc2)N=C1C | 260 °C
Cc1c(C#N)c(=O)oc2ccc(Br)cc12 | 187 to 192 °C
O=P(O)(O)C(O)c1ccccc1 (centres undefined) | 160 to 162 °C
COc1ccccc1N1Sc2ccccc2CC1=O | 171 °C
CCCCc1ccccc1OCCCOc1cccc2c(=O)cc(C(=O)O)oc12 | 168 °C

Structure (SMILES) | melting point
C/C=C(/C)c1ccc2c(c1)C(=O)N(c1ccc3c(ccn3C)c1)C2 | 144 to 145 °C
CC(n1cnc2cc(-c3ccc(F)cc3)sc2c1=O)C(O)(Cn1cncn1)c1ccc(F)cc1F (centres undefined) | 118 to 127 °C
COC(Cc1ccc(OCCN(C)c2nc3ccccc3o2)cc1)C(=O)O (centres undefined) | 121 to 123 °C
N#CCOc1cccc(CCNS(=O)(=O)c2ccc(Cl)cc2)c1 | 92 °C
O=C(O)CCCCc1ccc2cncn2c1 | 168 to 171 °C
CCn1c(=O)c2nc(-c3ccc(/C=C/C(=O)O)cc3)[nH]c2n(CC)c1=O | > 360 °C
c1ccc(-c2ccc3c(c2)sc2c4ccc(-c5ccccc5)cc4sc32)cc1 | > 300 °C
COC(=O)c1sccc1-c1ccccc1 | 63 to 66 °C
O=C(Nc1ccc2cc(CN3CCCC3)cnc2c1F)c1ccc(-c2ccc(F)cc2)cc1 | 178 °C
O=C(O)C1=Cc2cc(Cl)c(Cl)c(Cl)c2OC1C(F)(F)F (centres undefined) | 222 to 225 °C
Cc1cccc(-c2[nH]cnc2-c2ccc(F)c(Br)c2)n1 | 205 °C
CC(C)n1cc(C(=O)O)c2ccc(F)cc21 | 177 to 180 °C
O=C(NO)c1ccc(CNC(=O)c2[nH]c(-c3ccccc3)cc2-c2cccc(Br)c2)cc1 | 145 to 146 °C
Cc1c2[nH]c(C(=O)O)cc(=O)c2cc2c(=O)cc(C(=O)O)[nH]c12 | > 310 °C
CC(=O)N[C@@H](CSc1ccccc1[N+](=O)[O-])C(=O)O | 175 to 176 °C
CN(C)C=Cc1ccc([N+](=O)[O-])c2[nH]ncc12 | 255 °C
CCN1CN(C)CN(c2cc(Cl)ccc2C)C1=S | 129 to 131 °C
Cc1cc(=O)c(Oc2ccccc2C)c(-c2ccc(S(C)(=O)=O)cc2)o1 | 168 °C
COc1ccc(C#N)cc1C(C)(C)C=O | 115 to 117 °C
CC(C)(CNc1ccnc2cc(Cl)ccc12)NCc1ccc(Cl)c(Cl)c1 | 178 to 179 °C

Further lines, results first:

melting point | Structure (SMILES)
55 to 56 °C | CC(Br)=C(Br)CC(O)(Cn1cncn1)C1(Cl)CC1 (centres undefined)
160 °C | CC(C)(C)NCC(O)COc1ccccc1C(=O)Nc1cccc2c1CC(=O)N2 (centres undefined)
208 to 210 °C | CCCC(NC(=O)CN1C(=O)N(c2ccc(C)cc2)C2(CCCCC2)C1=O)c1ccccc1 (centres undefined)
254 to 255 °C | O=C(NC[C@H]1CN(c2cc(F)c(N3CCC(n4nccn4)CC3)c(F)c2)C(=O)O1)C(F)F
126 °C | CCCNC(=S)c1ccc2c(c1)N([C@H](C)CN1CCC[C@@H](C)C1)c1ccccc1S2 (racemic)
263 to 264 °C | CN1CCN(c2ccc(NC(=O)c3cc4ccccc4s3)cc2C#N)CC1
93 to 94 °C | CC(=O)O[C@H]1C=C(Br)C(=O)[C@@H]2O[C@H]12
107 to 109 °C | COC1(c2cc(F)cc(Sc3ccc4c(c3)O[C@H](C)C(=O)N4C)c2)CCOCC1
174 °C | CCn1nnc(-c2cccc(-c3ccnc4c(C(=O)c5cccs5)cnn34)c2)n1
62 to 64 °C | CNC(=O)NC(=O)C(CC1CCCC1O)c1ccc(Cl)c(Cl)c1 (centres undefined)
123 to 125 °C | CCCCOc1ccccc1-c1ncc(C(=O)OCC)c(=O)[nH]1
120 to 122 °C | CNC(=O)c1cccc2c1C1(COc3cc4c(cc31)OCCO4)C(=O)N2C (centres undefined)
206 to 208 °C | CCOC(=O)C1=C(COc2cccnc2)NC(COc2cccnc2)=C(C(=O)OCC)C1c1cccc([N+](=O)[O-])c1
259 to 262 °C | CC12CCC(=O)CC1CCC1C2CCC2(C)C(C(N)=O)CCC12 (centres undefined)
187 to 189 °C | COC1C(OC(=O)c2ccccc2)C(COC(=O)c2ccccc2)OC1n1cc([N+](=O)[O-])c(=O)[nH]c1=O (centres undefined)
210 to 211 °C | CC(=O)Nc1ccn(C2CCC(COC(C)=O)O2)c(=O)n1 (centres undefined)
190 °C | COc1cccc(-c2nn3c(c2C(=O)O)-c2ccccc2CC3)c1
159 to 160 °C | CC(O)=C(C(=O)OCc1ccc([N+](=O)[O-])cc1)N1C(=O)C(NC(=O)COc2ccccc2)C1SS(=O)(=O)c1ccc(C)cc1 (centres undefined)
136 to 138 °C | Cc1ccc(NC(=O)N2C(=O)C3(CCCCC3)NC23CCCCC3)cc1

melting point | Structure (SMILES)
198 to 200 °C | CCN(C(=O)c1cc(Cl)c(NC(=O)C(F)(F)F)cc1OC)C1CCN(Cc2ccccc2)CC1
76 to 85 °C | C=C(C)c1ccccc1S(N)(=O)=O
> 280 °C | C=CCc1cccc(-c2nc3n(C4CCCC4)[nH]c(CC)c-3c(=O)n2)c1O
101 to 103 °C | C#CC1CCN(C(=O)c2ccccc2)CC1
134 to 136 °C | CCC(CC(=O)OC)Sc1c(C(N)=O)sc2ccc(OC)cc12 (centres undefined)
144 to 146 °C | CS(=O)(=O)c1ccc(C2=C(c3ccccc3)C(=O)N(C3CC3)C2)cc1
177 to 178 °C | CC1(C)Oc2ccsc2C(NC(=O)c2ccc(C#N)cc2)C1O (centres undefined)
76 °C | O=[N+]([O-])c1cc(C(F)(F)F)ccc1C(O)c1cnoc1C1CC1 (centres undefined)
175 to 178 °C | O=C1NCCCCC1c1cccc(O)c1 (centres undefined)
178 °C | COc1ccc(C2=NN(C3CCN(C(=O)CN4C(=O)Cc5ccccc54)CC3)C(=O)C2(C)C)cc1OC
112 to 114 °C | O=C1NC(=O)C(c2ccc(Cl)o2)O1 (centres undefined)
71 to 72 °C | COC(=O)C(=C1SCCCN1C(=O)OC)[N+](=O)[O-]
106 to 108 °C | CC(=Cc1ccc(N)cc1)c1ccc2c(c1)C(C)(C)CCC2(C)C
198 to 200 °C | O=C1CC(c2cccc(-n3ccnc3)c2)=Nc2ccc(C3CC3)cc2N1
188 to 190 °C | CCOCC1OC(n2cc(C(F)(F)F)c(=O)[nH]c2=O)CC1O (centres undefined)
70 to 72 °C | CCCCCCCN(C(=O)Nc1ccccc1CCc1cc(C(C)(C)C)c(O)c(C(C)(C)C)c1)C1CCCCCC1
72 to 73 °C | COCCNC(=O)c1cccc(CN2C(=O)C3(COc4cc5c(cc43)CCO5)c3ccccc32)c1 (centres undefined)
175 to 177 °C | COCC1CN(c2ccc(C3CCN(Cc4ccccc4)CC3)cc2)C(=O)O1 (racemic)
